Patent US9498420B2, “Cosmetic compositions and methods for inhibiting melanin synthesis” (The Procter & Gamble Company, priority 2013, dated 2016)

System: B16-F1 mouse melanoma cells
Test: Melanin Synthesis Assay
Type: cell-based
Protocol: A B16-F1 mouse melanoma cell line may be employed as an assay to measure melanin synthesis. The B16-F1 cells may be obtained from […], Virginia, USA. The cell culture medium that may be used in the assay may comprise 500 mL of Dulbecco's Modified Eagle's Medium (DMEM), 50 mL Fetal Bovine Serum (FBS), and 5 mL of penicillin-streptomycin liquid. B16-F1 cells that are cultured in this medium and grown to greater than 90% confluency synthesize melanin. While not intending to be bound by any theory, it is hypothesized that melanin synthesis is stimulated by the culture medium and/or stress induced by growth to a high confluency. The DMEM and FBS can be obtained from […] and the penicillin-streptomycin liquid can be obtained from Invitrogen, Inc., California, USA. Equipment used in the assay include a CO2 incubator, such as a Forma Series Model 3110 by Therma Scientific, Massachusetts, USA; a hemocytometer, such as a Bright Line model by Hauser Scientific, Pennsylvania, USA; and a UV-Visible Spectrum Plate Reader, such as a SpectraMax250 from Molecular Devices, California, USA. The assay steps may include: Day 0—Cell Growth: Warm the cell culture medium to 37° C. and place 29 mL into a T-150 flask. Add approximately 1×10^6 of B16-F1 passage 1 mouse cells to the T-150 flask and incubate for 3 days at 37° C., 5% CO2, 90% relative humidity, until ˜80% confluency; Day 3—Initiate a 96 Well Plate: At day 3, trypsinize the cells from the T-150 flask and determine the concentration of cells using a hemocytometer. Initiate a 96 well plate with 2,500 cells per well in 100 microliters of cell culture medium. […] Read the 96 well plate using the UV-Vis Plate Reader at 410 nm to optically measure the amount of melanin produced between wells that are treated with [test compound] and control wells that are not treated with a test compound. […] Percentage of melanin synthesis inhibition is calculated by the following equation: [formula] Where OD410 is the Optical Density at 410 nm as measured by the UV-Vis Spectrum Plate Reader. […]

Row | Structure (SMILES) | reduction in the production of melanin as compared to Sample 4 (HD/UP/Nia) (Table 1 concentrations, B16-F1 mouse melanoma cells, statistical comparison) | Average Melanin % Inhibition (Table 2, B16-F1 cells, where present: 0.03% batyl alcohol, 0.003% bisabolol, 0.0005% hexyldecanol, 0.0001% undecylenoyl phenylalanine, 0.0005% niacinamide) | reduction in the production of melanin as compared to Sample 9 (HD/UP/Nia) (Table 2 concentrations, mouse melanoma cells, statistical comparison)
1 | CC(C)=CCC[C@](C)(O)[C@@H]1CC=C(C)CC1 [Sample 1, bisabolol] | did not significantly reduce |  | 
2 | CCCCCCCCCCCCCCCCCCOCC(O)CO (stereo not drawn) [Sample 8, batyl alcohol] |  | 7% | did not significantly reduce
